Experimental data as given in patent publication US20060069132A1, “Azolecarboxamide herbicides” (priority 2004, published 2006).

Experiments:
redroot pigweed = test: Test A pre-/postemergence herbicide test; type: in vivo, Amaranthus retroflexus
Procedure, shortened: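 Plants are held in greenhouse about ten days after treatment, then compared with untreated controls and scored 0 (no effect) to 100 (complete control). Preemergence dosing is a directed soil spray on sown sandy loam; postemergence dosing is spray to runoff at 2–10 cm height.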

barnyardgrass = test: Test B pre-/postemergence herbicide test; type: in vivo, Echinochloa crus-galli; conditions: for Plant response rating (0 to 100 scale), Barnyardgrass: 0 is no effect; for Plant response rating (0 to 100 scale), Barnyardgrass / Plant response rating, Barnyardgrass: preemergence; for Barnyardgrass plant response rating: postemergence; for Plant response rating, Barnyardgrass: 0 = no effect, 100 = complete control
Procedure, shortened: (§1)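 Response was scored visually 13 to 15 days after treatment against untreated greenhouse controls, 0 meaning no effect and 100 complete control. Formulations (solvent mixture plus surfactant) went onto soil after planting, onto foliage of 1- to 4-leaf plants, and onto 2-leaf plants in a flooded paddy set including rice and barnyardgrass.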

cocklebur = test: Test B pre-/postemergence herbicide test; type: in vivo, Xanthium strumarium; conditions: for Plant response rating (0 to 100 scale), Cocklebur: 0 is no effect; for Plant response rating (0 to 100 scale), Cocklebur / Plant response rating, Cocklebur: preemergence; for Cocklebur plant response rating: postemergence; for Plant response rating, Cocklebur: 0 = no effect, 100 = complete control
Procedure, shortened: as §1

bermudagrass = test: Test C pre-/postemergence herbicide test; type: in vivo, Cynodon dactylon; conditions: for Bermudagrass plant response rating: 500 g ai/ha
Procedure, shortened: (§2)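 Greenhouse-grown plants were evaluated visually 12 to 14 days after treatment, with 100 meaning complete control and 0 no effect. Application was preemergence, or postemergence at 2 to 18 cm.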

Surinam grass = test: Test C pre-/postemergence herbicide test; type: in vivo, Urochloa decumbens
Procedure, shortened: as §2

morningglory = test: Test C pre-/postemergence herbicide test; type: in vivo, Ipomoea coccinea; design: key to Plant response rating, Morningglory: 0 = no effect, 100 = complete control
Procedure, shortened: as §2

pigweed = test: Test C pre-/postemergence herbicide test; type: in vivo, Amaranthus retroflexus
Procedure, shortened: as §2

[1] = Postemergence, 500 g ai/ha, 0 to 100 scale, 0 no effect, 100 complete control
[2] = Postemergence, 2000 g ai/ha, 0 to 100 scale, 0 no effect, 100 complete control
[3] = Preemergence, 2000 g ai/ha, visual rating, 0 to 100 scale (0 no effect, 100 complete control)
[4] = preemergence, 500 g ai/ha, visual injury, 0 to 100 scale (0 no effect, 100 complete control)
[5] = 125 g ai/ha, 100 is complete control
[6] = 125 g ai/ha, visual rating, scale 0 (no effect) to 100 (complete control)
[7] = 500 g ai/ha, scale 0 to 100, 0 is no effect, 100 is complete control
[8] = 125 g ai/ha, scale 0 (no effect) to 100 (complete control), visual, 12 to 14 days, preemergence
[9] = 250 g ai/ha, scale 0-100, preemergence
[10] = 62 g ai/ha, preemergence, scale 0 to 100
[11] = 500 g ai/ha, scale 0 to 100 (0 no effect, 100 complete control), visual, 12 to 14 days, preemergence
[12] = Postemergence, 500 g ai/ha, scale 0 to 100
[13] = Postemergence, 250 g ai/ha, scale 0 to 100, 0 no effect, 100 complete control
[14] = postemergence, 125 g ai/ha, scale 0 to 100
[15] = postemergence, 62 g ai/ha, scale 0 to 100
[16] = Postemergence, 500 g ai/ha, scale 0 to 100, 0 no effect, 100 complete control

Structure (SMILES): C=CCNC(=O)c1cccc(NC(=O)c2cc(C(C)(C)C)nn2C)n1 [Compound 318]
- Pigweed plant response rating (redroot pigweed; [1]): 95
- Plant response rating, Pigweed (redroot pigweed; [2]): 100
- Pigweed plant response rating (redroot pigweed; [3]): 100
- Pigweed plant response rating (redroot pigweed; [4]): 75
- Plant response rating (0 to 100 scale), Barnyardgrass (barnyardgrass; [5]): 40
- Barnyardgrass plant response rating (barnyardgrass; [6]): 40
- Plant response rating, Barnyardgrass (barnyardgrass; 500 g ai/ha, visual rating): 90
- Barnyardgrass plant response rating (barnyardgrass; [7]): 70
- Plant response rating (0 to 100 scale), Cocklebur (cocklebur; [5]): 0
- Cocklebur plant response rating (cocklebur; [6]): 10
- Plant response rating, Cocklebur (cocklebur; 500 g ai/ha, visual rating): 0
- Cocklebur plant response rating (cocklebur; [7]): 80
- Plant response rating, Bermudagrass (bermudagrass; 62 g ai/ha, preemergence, scale 0 to 100, 0 no effect, 100 complete control): 10
- Plant response rating, Bermudagrass (bermudagrass; [8]): 70
- Plant response rating, Bermudagrass (bermudagrass; [9]): 90
- Bermudagrass plant response rating (bermudagrass; Postemergence, scale 0 to 100): 80
- Bermudagrass plant response rating (bermudagrass; Preemergence, scale 0 to 100, 0 no effect, 100 complete control): 95
- Plant response rating, Surinam Grass (Surinam grass; [10]): 10
- Plant response rating, Surinam Grass (Surinam grass; [9]): 50
- Plant response rating, Surinam Grass (Surinam grass; [11]): 60
- Surinam Grass plant response rating (Surinam grass; [12]): 10
- Plant response rating, Surinam Grass (Surinam grass; [13]): 0
- Plant response rating, Surinam Grass (Surinam grass; [14]): 0
- Plant response rating, Surinam Grass (Surinam grass; [15]): 0
- Plant response rating, Morningglory (morningglory; [10]): 0
- Plant response rating, Morningglory (morningglory; [8]): 0
- Plant response rating, Morningglory (morningglory; [9]): 0
- Plant response rating, Morningglory (morningglory; [11]): 85
- Morningglory plant response rating (morningglory; [12]): 0
- Plant response rating, Morningglory (morningglory; [13]): 0
- Plant response rating, Morningglory (morningglory; [14]): 0
- Plant response rating, Morningglory (morningglory; [15]): 0
- Plant response rating, Pigweed (pigweed; [10]): 80
- Plant response rating, Pigweed (pigweed; [8]): 95
- Plant response rating, Pigweed (pigweed; [9]): 100
- Plant response rating, Pigweed (pigweed; [11]): 100
- Pigweed plant response rating (pigweed; [12]): 100
- Plant response rating, Pigweed (pigweed; [13]): 100
- Plant response rating, Pigweed (pigweed; [14]): 100
- Plant response rating, Pigweed (pigweed; [15]): 100

Structure (SMILES): CCn1nc(C(C)(C)C)cc1C(=O)Nc1cc(OC(F)(F)F)ccc1F [Compound 338]
- Pigweed plant response rating (redroot pigweed; [1]): 70
- Plant response rating, Pigweed (redroot pigweed; [2]): 95
- Pigweed plant response rating (redroot pigweed; [3]): 90
- Pigweed plant response rating (redroot pigweed; [4]): 55
- Plant response rating (0 to 100 scale), Barnyardgrass (barnyardgrass; [5]): 20
- Barnyardgrass plant response rating (barnyardgrass; [6]): 20
- Plant response rating, Barnyardgrass (barnyardgrass; 500 g ai/ha, visual rating): 80
- Barnyardgrass plant response rating (barnyardgrass; [7]): 40
- Plant response rating (0 to 100 scale), Cocklebur (cocklebur; [5]): 0
- Cocklebur plant response rating (cocklebur; [6]): 10
- Plant response rating, Cocklebur (cocklebur; 500 g ai/ha, visual rating): 0
- Cocklebur plant response rating (cocklebur; [7]): 10
- Bermudagrass plant response rating (bermudagrass; Postemergence, scale 0 to 100): 5
- Plant response rating, Bermudagrass (bermudagrass; [13]): 0
- Plant response rating, Bermudagrass (bermudagrass; [14]): 0
- Plant response rating, Bermudagrass (bermudagrass; [15]): 0
- Plant response rating, Surinam Grass (Surinam grass; [13]): 0
- Plant response rating, Surinam Grass (Surinam grass; [16]): 30
- Plant response rating, Surinam Grass (Surinam grass; [14]): 0
- Plant response rating, Surinam Grass (Surinam grass; [15]): 0
- Plant response rating, Morningglory (morningglory; [13]): 40
- Plant response rating, Morningglory (morningglory; [16]): 50
- Plant response rating, Morningglory (morningglory; [14]): 0
- Plant response rating, Morningglory (morningglory; [15]): 0
- Plant response rating, Pigweed (pigweed; [13]): 80
- Plant response rating, Pigweed (pigweed; [16]): 80
- Plant response rating, Pigweed (pigweed; [14]): 5
- Plant response rating, Pigweed (pigweed; [15]): 0
